One series has as its system neoplastic lung disease. Details: species or system dogs. Particulars: dog, in vivo.
The test system of a further series is healthy animals. Particulars: in vivo; cited from earlier work.
A further series concerns patients. Particulars: cited from earlier work.
The test system of series [1] is gross metastatic disease, micrometastatic hemangiosarcoma or micrometastatic primary lung cancer. Details: species or system dogs. Particulars: dog, in vivo.
The conditions of series [2]: dog, in vivo.
The conditions of series [3]: share of drug bound in a protein-containing solution; cited from earlier work.
The next series relates to mice. The conditions noted are these: intraperitoneal pretreatment, bleomycin subcutaneous; cited from earlier work.
Series [4] relates to 68-2 Adenocarcinoma Cells.
The test system of the next series is rats. Particulars: rat, in vivo.

Entries after “also recorded” stand apart in the source; their conditions may differ. Read-outs that look alike come from different tables or passages of the source. Starred links: 1 amine or outer side, 2 acyl side, 3 side chain; linkers in the order of their positions; H or OH if unused. Positions of bridges follow the written chain, without caps; N, C: chain ends. Non-standard residues stand in square brackets, D forms with d. Residues, ends and D or L forms follow the SMILES beside them. Chains are numbered I, II in the order given. Actinocin(9to1) = Cc1c2oc3c(C)ccc(C(=O)[*:1])c3nc-2c(C(=O)[*:2])c(N)c1=O; NMeV = CN[C@H](C(=O)O)C(C)C; Sar = CNCC(=O)O

Results on 13 molecules are retold here after patent US6451784B1 (priority 1996, dated 2002).

In the case of `O=P1(N(CCCl)CCCl)NCCCO1` (stereo not drawn) [CTX], the Results result in the series on neoplastic lung disease is listed as “SD lung”.
Consider `O=P1(N(CCCl)CCCl)NCCCO1` (stereo not drawn) [Cyclophosphamide, cyclophosphamide], for which the “Toxic effects to the respiratory tract” value in the series with healthy animals is recorded as “only mild inflammation”.
On to `Cc1c2oc3c(C)ccc(C(=O)N[C@@H]4C(=O)N[C@H](C(C)C)C(=O)N5CCC[C@H]5C(=O)N(C)CC(=O)N(C)[C@@H](C(C)C)C(=O)O[C@@H]4C)c3nc-2c(C(=O)N[C@@H]2C(=O)N[C@H](C(C)C)C(=O)N3CCC[C@H]3C(=O)N(C)CC(=O)N(C)[C@@H](C(C)C)C(=O)O[C@@H]2C)c(N)c1=O` [Dactinomycin] (I: T[dV]P[Sar][NMeV] / II: T[dV]P[Sar][NMeV]; ester I:1-I:C, II:1-II:C; linker I:N-II:N via Actinocin(9to1)), for which, in the series with patients, the “Pulmonary toxicity of the IV administered drug” value (“Pulmonary toxicity” for short) is recorded as “no mention is made of pulmonary toxicity”.
On to `COc1cccc2c1C(=O)c1c(O)c3c(c(O)c1C2=O)C[C@@](O)(C(=O)CO)C[C@@H]3O[C@H]1C[C@H](N)[C@H](O)[C@H](C)O1` [Doxorubicin, doxorubicin], for which the “Development of lung metastases” value in the series with neoplastic lung disease is given as “no metastases developed in the lung for four months”. The “Pulmonary toxicity” value in the series with patients was “no indication of pulmonary toxicity”. In addition, in series [1], the “Outcome after inhalation treatment” value was “alive with no evidence of disease 81 days later”. Further, the “Disease in the lung” value in series [1] (iv) is recorded as “no evidence of disease in the lung”. In addition, in series [2], the “Clearance from the lung after pulmonary administration” value was “not rapidly cleared from the lung”; the “Damage to the respiratory tract at necropsy” value was “no damage to the respiratory tract was observed”; the “Peak blood levels following inhalation exposure compared with IV” value is “over an order of magnitude lower”; the “Systemic doxorubicin level after about 4 hours, IV relative to pulmonary route” value is on record as “about six times higher”. For the same molecule, the “Initial plasma concentration at 2 minutes, IV relative to pulmonary route” value in [2] (iv, 1 mg/kg) is “about 1.5 orders of magnitude”.
For `COc1cc([C@@H]2c3cc4c(cc3[C@@H](O[C@@H]3O[C@@H]5CO[C@@H](C)O[C@H]5[C@H](O)[C@H]3O)[C@H]3COC(=O)[C@H]23)OCO4)cc(OC)c1O` [Etoposide, etoposide], the “Pulmonary toxicity” value with patients is given as “no indication of pulmonary toxicity”.
In the case of `CC(=O)[C@]1(O)Cc2c(O)c3c(c(O)c2[C@@H](O[C@H]2C[C@H](N)[C@H](O)[C@H](C)O2)C1)C(=O)c1ccccc1C3=O` [Idarubicin], the “Pulmonary toxicity” value in the series with patients is listed as “no mention is made of pulmonary toxicity”.
With `CCc1c2c(nc3ccc(OC(=O)N4CCC(N5CCCCC5)CC4)cc13)-c1cc3c(c(=O)n1C2)COC(=O)[C@]3(O)CC` [Irinotecan], the “Pulmonary toxicity” value with patients was “no mention is made of pulmonary toxicity”.
For `CO[C@@]12[C@H](COC(N)=O)C3=C(C(=O)C(C)=C(N)C3=O)N1C[C@@H]1N[C@@H]12` [Mutamycin, mitomycin], the “Toxic effects to the respiratory tract” value in the series with healthy animals is listed as “the most severe results”.
For `CC(=O)O[C@H]1C(=O)[C@@]2(C)[C@H]([C@H](OC(=O)c3ccccc3)[C@]3(O)C[C@H](OC(=O)[C@H](O)[C@@H](NC(=O)c4ccccc4)c4ccccc4)C(C)=C1C3(C)C)[C@]1(OC(C)=O)CO[C@@H]1C[C@@H]2O` [Taxol, Paclitaxel], the Results result with neoplastic lung disease is recorded as “SD (4 weeks) lung; also recorded: PD lung, Rx discontinued”. Further, the “Pulmonary toxicity” value in the series on patients was “pulmonary toxicity is not listed”. In [1], the “Outcome after inhalation treatment” value is recorded as “no evidence of disease”; the Results entry is “SD (PR after; also recorded: PD (PR noted; also recorded: Alive and NED”.
With `CC[C@]1(O)C[C@H]2CN(CCc3c([nH]c4ccccc34)[C@@](C(=O)OC)(c3cc4c(cc3OC)N(C=O)[C@H]3[C@@](O)(C(=O)OC)[C@H](OC(C)=O)[C@]5(CC)C=CCN6CC[C@]43[C@@H]65)C2)C1` [Vincristine, vincristine], the “Pulmonary toxicity” value in the series with patients was “no pulmonary toxicity noted”.
For `Nc1ccn([C@@H]2O[C@H](CO)[C@@H](O)[C@@H]2O)c(=O)n1` [cytarabine], the Protein binding affinity in [3] is recorded as 13%.
For the molecule `C[C@@H](CN1CC(=O)NC(=O)C1)N1CC(=O)NC(=O)C1` [dexrazoxane], the “Protection against bleomycin-induced pulmonary damage” value with mice is reported as “reduced pulmonary alterations particularly fibrosis”.
For carboplatin, in series [4] (Group 2, IV 180 mg/m^2, Day 61), the “Mean Lung Weight” value is on record as 1.37 ± 0.16 g and the “Mean Percentage of Lung W/Tumors” value was determined as 10 ± 0%. Besides, in [4] (Group 3, IV 300 mg/m^2, Day 61), the “Mean Lung Weight” value was found to be 1.37 ± 0.11 g and the “Mean Percentage of Lung W/Tumors” value worked out at 10 ± 0%. The “Lung covered by tumor” value in series [4] (rat, IV 180 or 300 mg/m^2, Day 61) is given as 10%. Moreover, the “Average lung and lung tumor weight” value in series [4] (rat, both low (180 mg/m^2) and high (300 mg/m^2) dose, Day 61) stood at 1.37 gram. The “Tolerated dose when given by inhalation” value in the series with rats is recorded as “up to 1.9 mg/m^2”.
